Key:
Test in all cases: KINOMEscan
Format in all cases: binding
Conditions in all cases: read-out: Percent Control
CDK3 = biological target: T1, CDK3 (Homo sapiens, UniProt Q00526)
T1 construct: purchased Eurofins DiscoverX KINOMEscan (scanMAX 468)

YES = biological target: T2, YES (Homo sapiens, UniProt P07947)
T2 construct: purchased Eurofins (KINOMEscan, DiscoverX)

WEE2 = biological target: T3, WEE2 (Homo sapiens, UniProt P0C1S8)
T3 construct: purchased Eurofins DiscoverX KINOMEscan (scanMAX 468)

MEK3 = biological target: T4, MEK3 (Homo sapiens, UniProt P46734)
T4 construct: purchased Eurofins DiscoverX KINOMEscan (scanMAX 468)
T4 sequence (P46734 whole entry): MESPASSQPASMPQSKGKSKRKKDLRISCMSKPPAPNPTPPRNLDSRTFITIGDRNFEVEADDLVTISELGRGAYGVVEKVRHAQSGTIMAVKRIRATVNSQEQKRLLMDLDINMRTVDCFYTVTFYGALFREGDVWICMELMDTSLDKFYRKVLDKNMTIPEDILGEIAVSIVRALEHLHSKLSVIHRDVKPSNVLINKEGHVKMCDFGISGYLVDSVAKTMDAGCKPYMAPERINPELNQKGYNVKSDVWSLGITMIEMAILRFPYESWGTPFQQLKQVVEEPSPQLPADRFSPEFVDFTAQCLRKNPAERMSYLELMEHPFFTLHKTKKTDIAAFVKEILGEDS

CSNK2A1 = biological target: T5, CSNK2A1 (Homo sapiens, UniProt P68400)
T5 construct: purchased Eurofins DiscoverX KINOMEscan (scanMAX 468)

EGFR(L861Q) = biological target: T6, EGFR(L861Q) (Homo sapiens, UniProt P00533, L861Q)
T6 construct: purchased Eurofins DiscoverX KINOMEscan (scanMAX 468)
T6 sequence (P00533 25-1210 L861Q): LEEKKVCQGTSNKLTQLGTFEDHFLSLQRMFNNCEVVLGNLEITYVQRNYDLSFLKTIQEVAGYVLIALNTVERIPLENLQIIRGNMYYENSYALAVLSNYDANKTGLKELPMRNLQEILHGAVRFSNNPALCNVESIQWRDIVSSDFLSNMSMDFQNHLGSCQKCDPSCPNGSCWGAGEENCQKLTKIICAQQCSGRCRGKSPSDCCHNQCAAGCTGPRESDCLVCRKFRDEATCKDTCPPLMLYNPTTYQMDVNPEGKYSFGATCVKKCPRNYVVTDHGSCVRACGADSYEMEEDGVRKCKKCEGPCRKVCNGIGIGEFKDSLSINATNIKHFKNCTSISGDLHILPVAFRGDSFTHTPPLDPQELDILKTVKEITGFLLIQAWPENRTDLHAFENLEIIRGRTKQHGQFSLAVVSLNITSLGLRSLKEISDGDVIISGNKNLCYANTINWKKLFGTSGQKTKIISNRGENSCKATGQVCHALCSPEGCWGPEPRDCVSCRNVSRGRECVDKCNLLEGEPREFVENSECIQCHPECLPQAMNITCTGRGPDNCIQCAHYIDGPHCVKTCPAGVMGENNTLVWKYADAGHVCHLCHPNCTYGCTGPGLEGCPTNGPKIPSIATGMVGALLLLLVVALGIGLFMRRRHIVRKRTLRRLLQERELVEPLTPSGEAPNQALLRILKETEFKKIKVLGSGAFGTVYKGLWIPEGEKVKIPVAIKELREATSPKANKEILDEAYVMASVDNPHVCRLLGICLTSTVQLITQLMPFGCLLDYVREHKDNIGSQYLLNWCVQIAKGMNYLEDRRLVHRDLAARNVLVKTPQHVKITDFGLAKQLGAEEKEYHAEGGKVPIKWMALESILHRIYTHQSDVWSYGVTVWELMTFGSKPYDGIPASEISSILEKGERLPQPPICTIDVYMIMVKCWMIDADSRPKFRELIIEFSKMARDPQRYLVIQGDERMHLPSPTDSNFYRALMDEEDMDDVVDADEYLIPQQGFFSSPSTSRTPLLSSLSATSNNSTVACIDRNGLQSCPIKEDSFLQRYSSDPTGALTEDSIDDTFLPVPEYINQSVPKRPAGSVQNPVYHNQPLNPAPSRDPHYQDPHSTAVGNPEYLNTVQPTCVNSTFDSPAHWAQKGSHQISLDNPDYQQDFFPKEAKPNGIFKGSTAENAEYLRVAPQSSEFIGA

PAK1 = biological target: T7, PAK1 (Homo sapiens, UniProt Q13153)
T7 construct: purchased Eurofins DiscoverX KINOMEscan (scanMAX 468)

IRAK1 = biological target: T8, IRAK1 (Homo sapiens, UniProt P51617)
T8 construct: purchased Eurofins DiscoverX KINOMEscan (scanMAX 468)

HIPK4 = biological target: T9, HIPK4 (Homo sapiens, UniProt Q8NE63)
T9 construct: purchased Eurofins DiscoverX KINOMEscan (scanMAX 468)

FYN = biological target: T10, FYN (Homo sapiens, UniProt P06241)
T10 construct: purchased Eurofins DiscoverX KINOMEscan (scanMAX 468)

FGFR3 = biological target: T11, FGFR3 (Homo sapiens, UniProt P22607)
T11 construct: purchased Eurofins DiscoverX KINOMEscan (scanMAX 468)

ERK1 = biological target: T12, ERK1 (Homo sapiens, UniProt P27361)
T12 construct: purchased Eurofins DiscoverX KINOMEscan (scanMAX 468)

GSK3A = biological target: T13, GSK3A (Homo sapiens, UniProt P49840)
T13 construct: purchased Eurofins DiscoverX KINOMEscan (scanMAX 468)

CDKL2 = biological target: T14, CDKL2 (Homo sapiens, UniProt Q92772)
T14 construct: purchased Eurofins DiscoverX KINOMEscan (scanMAX 468)

PIK3CA(H1047L) = biological target: T15, PIK3CA(H1047L) (Homo sapiens, UniProt P42336, H1047L)
T15 construct: purchased Eurofins DiscoverX KINOMEscan (scanMAX 468)

PIK3CA(E545K) = biological target: T16, PIK3CA(E545K) (Homo sapiens, UniProt P42336, E545K)
T16 construct: purchased Eurofins DiscoverX KINOMEscan (scanMAX 468)

SYK = biological target: T17, SYK (Homo sapiens, UniProt P43405)
T17 construct: purchased Eurofins DiscoverX KINOMEscan (scanMAX 468)

PDPK1 = biological target: T18, PDPK1 (Homo sapiens, UniProt O15530)
T18 construct: purchased Eurofins DiscoverX KINOMEscan (scanMAX 468)

KIT(L576P) = biological target: T19, KIT(L576P) (Homo sapiens, UniProt P10721, L576P)
T19 construct: purchased Eurofins DiscoverX KINOMEscan (scanMAX 468)

PIP5K1A = biological target: T20, PIP5K1A (Homo sapiens, UniProt Q99755)
T20 construct: purchased Eurofins DiscoverX KINOMEscan (scanMAX 468)

TRPM6 = biological target: T21, TRPM6 (Homo sapiens, UniProt Q9BX84)
T21 construct: purchased Eurofins DiscoverX KINOMEscan (scanMAX 468)

ERK8 = biological target: T22, ERK8 (Homo sapiens, UniProt Q8TD08)
T22 construct: purchased Eurofins DiscoverX KINOMEscan (scanMAX 468)

EPHB2 = biological target: T23, EPHB2 (Homo sapiens, UniProt P29323)
T23 construct: purchased Eurofins DiscoverX KINOMEscan (scanMAX 468)

LATS2 = biological target: T24, LATS2 (Homo sapiens, UniProt Q9NRM7)
T24 construct: purchased Eurofins DiscoverX KINOMEscan (scanMAX 468)

BRAF(V600E) = biological target: T25, BRAF(V600E) (Homo sapiens, UniProt P15056, V600E)
T25 construct: purchased Eurofins DiscoverX KINOMEscan (scanMAX 468)

BMPR1A = biological target: T26, BMPR1A (Homo sapiens, UniProt P36894)
T26 construct: purchased Eurofins DiscoverX KINOMEscan (scanMAX 468)

IKK-alpha = biological target: T27, IKK-alpha (Homo sapiens, UniProt O15111)
T27 construct: purchased Eurofins DiscoverX KINOMEscan (scanMAX 468)
T27 sequence (O15111 whole entry): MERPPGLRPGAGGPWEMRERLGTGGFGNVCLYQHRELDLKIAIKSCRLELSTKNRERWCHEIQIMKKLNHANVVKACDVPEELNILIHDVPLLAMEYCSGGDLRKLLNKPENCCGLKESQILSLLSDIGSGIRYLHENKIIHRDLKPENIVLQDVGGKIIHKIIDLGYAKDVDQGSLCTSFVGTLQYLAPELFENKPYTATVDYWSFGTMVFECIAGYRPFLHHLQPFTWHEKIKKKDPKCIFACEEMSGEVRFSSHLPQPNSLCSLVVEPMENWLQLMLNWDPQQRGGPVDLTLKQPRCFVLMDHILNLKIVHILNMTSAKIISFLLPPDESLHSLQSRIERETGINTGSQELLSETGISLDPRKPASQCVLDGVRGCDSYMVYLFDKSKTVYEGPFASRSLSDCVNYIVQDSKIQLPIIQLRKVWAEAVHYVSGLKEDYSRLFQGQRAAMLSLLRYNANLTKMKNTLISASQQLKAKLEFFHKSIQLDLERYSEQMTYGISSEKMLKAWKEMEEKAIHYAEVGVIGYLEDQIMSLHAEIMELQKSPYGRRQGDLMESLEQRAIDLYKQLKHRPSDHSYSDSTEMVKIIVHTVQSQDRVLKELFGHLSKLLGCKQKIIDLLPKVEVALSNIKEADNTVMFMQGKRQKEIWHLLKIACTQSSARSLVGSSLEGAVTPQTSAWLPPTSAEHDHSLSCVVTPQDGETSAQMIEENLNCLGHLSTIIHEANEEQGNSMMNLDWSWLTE

AURKB = biological target: T28, AURKB (Homo sapiens, UniProt Q96GD4)
T28 construct: purchased Eurofins DiscoverX KINOMEscan (scanMAX 468)

MEK1 = biological target: T29, MEK1 (Homo sapiens, UniProt Q02750)
T29 construct: purchased Eurofins DiscoverX KINOMEscan (scanMAX 468)
T29 sequence (Q02750 whole entry): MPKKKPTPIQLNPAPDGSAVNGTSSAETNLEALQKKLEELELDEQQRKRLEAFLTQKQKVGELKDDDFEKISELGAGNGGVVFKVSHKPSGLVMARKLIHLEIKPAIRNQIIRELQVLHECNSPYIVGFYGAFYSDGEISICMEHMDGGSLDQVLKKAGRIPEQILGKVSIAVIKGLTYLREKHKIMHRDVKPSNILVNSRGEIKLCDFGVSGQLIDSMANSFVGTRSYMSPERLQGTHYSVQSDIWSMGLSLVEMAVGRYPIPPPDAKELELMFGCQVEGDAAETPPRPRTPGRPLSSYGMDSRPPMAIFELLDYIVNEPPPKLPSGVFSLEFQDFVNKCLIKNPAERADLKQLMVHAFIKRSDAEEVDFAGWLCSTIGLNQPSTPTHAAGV

NEK1 = biological target: T30, NEK1 (Homo sapiens, UniProt Q96PY6)
T30 construct: purchased Eurofins DiscoverX KINOMEscan (scanMAX 468)

ERBB4 = biological target: T31, ERBB4 (Homo sapiens, UniProt Q15303)
T31 construct: purchased Eurofins DiscoverX KINOMEscan (scanMAX 468)

NEK11 = biological target: T32, NEK11 (Homo sapiens, UniProt Q8NG66)
T32 construct: purchased Eurofins DiscoverX KINOMEscan (scanMAX 468)

MARK3 = biological target: T33, MARK3 (Homo sapiens, UniProt P27448)
T33 construct: purchased Eurofins DiscoverX KINOMEscan (scanMAX 468)

QSK = biological target: T34, QSK (Homo sapiens, UniProt Q9Y2K2)
T34 construct: purchased Eurofins DiscoverX KINOMEscan (scanMAX 468)

DMPK = biological target: T35, DMPK (Homo sapiens, UniProt Q09013)
T35 construct: purchased Eurofins DiscoverX KINOMEscan (scanMAX 468)
T35 sequence (Q09013 whole entry): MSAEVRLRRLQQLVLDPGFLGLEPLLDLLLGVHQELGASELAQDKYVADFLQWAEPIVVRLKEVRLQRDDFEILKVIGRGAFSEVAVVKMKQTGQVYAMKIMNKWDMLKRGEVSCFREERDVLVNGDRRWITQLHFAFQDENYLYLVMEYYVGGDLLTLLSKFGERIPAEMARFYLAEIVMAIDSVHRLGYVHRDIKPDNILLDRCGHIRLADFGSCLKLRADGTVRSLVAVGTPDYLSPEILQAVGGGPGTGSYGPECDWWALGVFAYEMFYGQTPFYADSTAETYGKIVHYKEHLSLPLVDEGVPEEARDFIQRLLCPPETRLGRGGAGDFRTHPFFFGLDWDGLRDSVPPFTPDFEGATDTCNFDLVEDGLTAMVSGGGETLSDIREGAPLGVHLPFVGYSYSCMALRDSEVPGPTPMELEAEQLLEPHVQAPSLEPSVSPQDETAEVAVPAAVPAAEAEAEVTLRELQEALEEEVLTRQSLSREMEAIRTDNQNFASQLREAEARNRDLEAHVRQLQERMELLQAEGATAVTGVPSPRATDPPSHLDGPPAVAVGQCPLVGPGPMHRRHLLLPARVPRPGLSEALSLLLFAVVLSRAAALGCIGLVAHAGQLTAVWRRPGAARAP

CAMK2B = biological target: T36, CAMK2B (Homo sapiens, UniProt Q13554)
T36 construct: purchased Eurofins DiscoverX KINOMEscan (scanMAX 468)

EPHA2 = biological target: T37, EPHA2 (Homo sapiens, UniProt P29317)
T37 construct: purchased Eurofins DiscoverX KINOMEscan (scanMAX 468)
T37 sequence (P29317 24-976): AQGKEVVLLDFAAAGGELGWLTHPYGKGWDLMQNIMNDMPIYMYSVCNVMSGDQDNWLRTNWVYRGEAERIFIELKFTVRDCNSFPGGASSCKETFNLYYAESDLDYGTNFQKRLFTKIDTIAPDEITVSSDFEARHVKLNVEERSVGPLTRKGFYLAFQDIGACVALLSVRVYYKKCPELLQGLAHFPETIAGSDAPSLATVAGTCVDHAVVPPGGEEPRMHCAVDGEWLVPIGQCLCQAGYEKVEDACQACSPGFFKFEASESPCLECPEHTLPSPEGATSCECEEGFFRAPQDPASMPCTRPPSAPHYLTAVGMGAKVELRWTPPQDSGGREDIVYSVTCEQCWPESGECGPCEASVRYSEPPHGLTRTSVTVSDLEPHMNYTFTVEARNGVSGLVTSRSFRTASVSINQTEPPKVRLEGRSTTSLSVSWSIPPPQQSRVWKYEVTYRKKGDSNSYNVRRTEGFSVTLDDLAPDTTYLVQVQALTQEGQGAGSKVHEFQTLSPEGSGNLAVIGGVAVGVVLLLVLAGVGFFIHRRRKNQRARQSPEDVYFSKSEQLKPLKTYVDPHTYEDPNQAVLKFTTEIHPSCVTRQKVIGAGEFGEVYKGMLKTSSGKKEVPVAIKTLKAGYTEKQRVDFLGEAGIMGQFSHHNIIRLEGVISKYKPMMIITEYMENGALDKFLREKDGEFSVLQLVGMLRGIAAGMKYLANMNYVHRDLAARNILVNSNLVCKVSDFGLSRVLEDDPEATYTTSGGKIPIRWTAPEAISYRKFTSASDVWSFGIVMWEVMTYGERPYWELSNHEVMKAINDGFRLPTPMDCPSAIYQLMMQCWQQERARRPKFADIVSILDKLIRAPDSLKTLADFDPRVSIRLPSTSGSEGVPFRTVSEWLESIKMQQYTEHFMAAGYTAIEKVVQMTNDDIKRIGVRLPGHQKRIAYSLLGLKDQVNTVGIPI

DCAMKL3 = biological target: T38, DCAMKL3 (Homo sapiens, UniProt Q9C098)
T38 construct: purchased Eurofins DiscoverX KINOMEscan (scanMAX 468)

CSNK1G1 = biological target: T39, CSNK1G1 (Homo sapiens, UniProt Q9HCP0)
T39 construct: purchased Eurofins DiscoverX KINOMEscan (scanMAX 468)

NEK2 = biological target: T40, NEK2 (Homo sapiens, UniProt P51955)
T40 construct: purchased Eurofins DiscoverX KINOMEscan (scanMAX 468)
T40 sequence (P51955 whole entry): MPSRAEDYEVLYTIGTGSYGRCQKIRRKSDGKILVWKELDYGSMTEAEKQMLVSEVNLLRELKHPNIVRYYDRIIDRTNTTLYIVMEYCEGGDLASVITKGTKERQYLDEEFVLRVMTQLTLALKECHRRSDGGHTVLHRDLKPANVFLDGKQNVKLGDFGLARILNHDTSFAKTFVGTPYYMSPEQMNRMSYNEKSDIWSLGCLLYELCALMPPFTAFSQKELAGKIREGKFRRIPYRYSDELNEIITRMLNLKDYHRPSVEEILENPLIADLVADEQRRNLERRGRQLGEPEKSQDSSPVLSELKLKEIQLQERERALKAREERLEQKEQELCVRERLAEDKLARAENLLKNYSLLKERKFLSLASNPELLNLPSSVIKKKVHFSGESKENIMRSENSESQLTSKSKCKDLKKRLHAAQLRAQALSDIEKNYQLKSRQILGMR

TEC = biological target: T41, TEC (Homo sapiens, UniProt P42680)
T41 construct: purchased Eurofins DiscoverX KINOMEscan (scanMAX 468)

ROS1 = biological target: T42, ROS1 (Homo sapiens, UniProt P08922)
T42 construct: purchased Eurofins DiscoverX KINOMEscan (scanMAX 468)

p38-alpha = biological target: T43, p38-alpha (Homo sapiens, UniProt Q16539)
T43 construct: purchased Eurofins DiscoverX KINOMEscan (scanMAX 468)

MAP3K2 = biological target: T44, MAP3K2 (Homo sapiens, UniProt Q9Y2U5)
T44 construct: purchased Eurofins DiscoverX KINOMEscan (scanMAX 468)

Measured: remaining binding at 1 µM

T1 sequence (Q00526 whole entry): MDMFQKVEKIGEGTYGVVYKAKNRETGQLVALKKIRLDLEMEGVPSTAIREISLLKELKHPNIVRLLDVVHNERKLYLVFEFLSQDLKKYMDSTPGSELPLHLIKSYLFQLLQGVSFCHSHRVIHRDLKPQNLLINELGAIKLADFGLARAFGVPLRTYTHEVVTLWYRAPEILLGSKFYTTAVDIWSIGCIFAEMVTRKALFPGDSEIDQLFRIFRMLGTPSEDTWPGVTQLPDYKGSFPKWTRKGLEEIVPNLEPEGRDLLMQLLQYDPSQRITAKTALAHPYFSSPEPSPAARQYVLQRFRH

Cc1ccc(-n2cc(COc3cccc4cnc(Nc5cccc(Cl)c5)nc34)nn2)c([N+](=O)[O-])c1 [DB18]
99%: EGFR(L861Q) | AURKB
98%: MEK3
75%: CSNK2A1
95%: ERK8
17%: HIPK4
91%: TRPM6
68%: BMPR1A
92%: PDPK1
93%: FYN
96%: BRAF(V600E) | QSK
66%: PIK3CA(E545K)
97%: CDKL2 | SYK | MEK1 | MAP3K2
100%: all other assays above
